Experimental data as given in BindingDB's records for doi:10.7270/Q25719HD (The Scripps Research Institute Molecular Screening Center, 2010).

Biological target: T1, Cytochrome b-245 heavy chain (Homo sapiens, UniProt P04839)
T1 sequence (P04839 whole entry): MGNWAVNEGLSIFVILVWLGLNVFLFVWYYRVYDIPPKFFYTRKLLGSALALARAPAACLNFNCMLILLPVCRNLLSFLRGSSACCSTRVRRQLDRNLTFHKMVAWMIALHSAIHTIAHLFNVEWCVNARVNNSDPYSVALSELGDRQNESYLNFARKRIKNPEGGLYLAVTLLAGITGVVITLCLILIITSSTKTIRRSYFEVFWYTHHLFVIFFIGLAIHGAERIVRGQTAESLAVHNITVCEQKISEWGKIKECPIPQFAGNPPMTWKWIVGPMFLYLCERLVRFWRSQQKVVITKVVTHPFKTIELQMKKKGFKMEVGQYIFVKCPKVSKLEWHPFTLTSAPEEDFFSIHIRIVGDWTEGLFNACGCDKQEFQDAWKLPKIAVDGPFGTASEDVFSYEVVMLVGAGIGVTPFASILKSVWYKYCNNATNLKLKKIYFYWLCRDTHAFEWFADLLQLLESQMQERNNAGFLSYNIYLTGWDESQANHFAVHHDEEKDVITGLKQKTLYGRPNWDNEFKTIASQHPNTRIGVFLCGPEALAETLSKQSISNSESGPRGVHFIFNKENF
Assay: PubChem AID 435013

Compound	IC50
Oc1c(Br)cc(CN=Nc2c(Cl)cncc2Cl)cc1Br [4-[[2-[3,5-bis(chloranyl)pyridin-4-yl]hydrazinyl]methylidene]-2,6-bis(bromanyl)cyclohexa-2,5-dien-1-one]	> 50 µM
CN(C)c1ccc(CN=Nc2c(Cl)cncc2Cl)cc1	> 10 µM
